Publication PMC6848974 (Science translational medicine, 2019)
Entries after “also recorded” stand apart in the source; their conditions may differ.

Key:
[1] = test system: Ca/09; assay: cells; type: cell-based, human airway epithelia
[2] = test system: A/California/07/2009 (H1N1); set-up: species or system ferrets; conditions: in vivo
[3] = PK of NHC and EIDD-2801 in mice
[4] = test system: A/Wisconsin/67/2005 (H3N2); set-up: species or system ferrets; conditions: in vivo
[5] = test system: ferret lung nuclear (TNFα) and mitochondrial (COX15) mRNAs; conditions: in vivo, po, 100 mg/kg
[6] = PK and PD; type: in vivo; conditions: ferrets
[7] = Plasma PK in cynomolgus macaques; type: in vivo; conditions: non-human primates
[8] = test system: well-differentiated human airway epithelia
[9] = test system: HBTEC nuclear (SDH-A) and mitochondrial (COX1) mRNAs; assay: Transitions in host mRNA of HBTECs; conditions: 72 hours
[10] = test system: Ca/09, Wi/05, and B/Brisbane/60/2008; assay: microbe, parasite or virus in culture; type: cell-based, human airway epithelia
[11] = in vitro; conditions: human
[12] = test system: HBTECs mitochondrial (COX1) and nuclear (SDH-A) protein expression

**Q.** Which EC50 ([1]; Homo sapiens, 72 h) does the source give for `CCC(CC)O[C@@H]1C=C(C(=O)O)C[C@H](N)[C@H]1NC(C)=O` [oseltamivir carboxylate, reference compound] here?
**A.** The EC50 was 190 nM.

**Q.** For `CCOC(=O)C1=C[C@@H](OC(CC)CC)[C@H](NC(C)=O)[C@@H](N)C1` [oseltamivir, oseltamivir-phosphate, reference compound], which “bronchiolar inflammation in lung sections versus EIDD-2801 therapeutic groups” value [2] is on record?
**A.** The value was “more pronounced”.

**Q.** And the “inhibitory effect on shed virus titer” value [2]?
**A.** Its value is “no significant (P ≥0.13) inhibitory effect”.

**Q.** What does the source list for `CC(C)C(=O)OC[C@H]1O[C@@H](n2ccc(NO)nc2=O)[C@H](O)[C@@H]1O` [EIDD-2801]?
**A.** hydrolysis in vivo after absorption (only free NHC detected in plasma) [3]: efficiently hydrolyzed; reduction of shed viral titers [4]: ≥ 4 orders of magnitude; shed virus load in nasal lavages [4]: at or below limit of detection; tissue (nasal turbinate) viral titers [4]: undetectable; transition frequencies in nuclear and mitochondrial message versus vehicle [5]: indistinguishable; oral bioavailability compared to NHC ([6]; oral): increased oral bioavailability; tolerability (phenotypically appreciable adverse effects) ([6]; seven b.i.d. oral doses at 100 mg/kg): well tolerated; drug accumulation on repeat dosing ([6]; single versus multi-dose oral b.i.d.): does not lead to drug accumulation; oral bioavailability compared to NHC [7]: increased oral bioavailability; cellular infiltrates in nasal cavities and blood lymphocyte counts [2]: remained unchanged; duration of fever [2]: shortened; also recorded: significantly (P <0.0001 and P = 0.03, respectively) reduced; reduction of shed viral titers [2]: ≥ 4 orders of magnitude; reduction of tissue (nasal turbinate) viral titers [2]: more than 4 orders of magnitude; relative cytokine and CXCL10 induction [2]: significantly lowered; shed virus load [2]: dropped by several orders of magnitude; also recorded: significantly (P <0.0001 and P = 0.03, respectively) reduced; shed virus load in nasal lavages [2]: at or below limit of detection; time at which fever started to decline [2]: approximately 1.5 days after infection; viral titers in bronchioalveolar lavages and lung tissue [2]: significantly reduced; virus burden in nasal turbinates and tracheas [2]: reduction of several orders of magnitude; virus in lung sections by immunohistochemistry [2]: immunohistochemically undetectable

**Q.** Which cytotoxicity threshold [8] does the source give for `O=c1nc(NO)ccn1[C@@H]1O[C@H](CO)[C@@H](O)[C@H]1O` [NHC, N^4-hydroxycytidine] here?
**A.** Its cytotoxicity threshold is about 50 µM.

**Q.** What about the “off-target effects (transition mutations in host mRNAs)” value ([9]; 1.8 μM NHC) of the same compound?
**A.** The value was “no off-target effects”.

**Q.** What about the “transition mutations in host mRNAs” value ([9]; higher NHC concentrations (50 μM, 10 μM)) of the same compound?
**A.** Its value is “increased C to U and U to C transitions”.

**Q.** And the “EC50 in human epithelia lower than in immortalized cell lines” value [10]?
**A.** The value was 25-50 fold.

**Q.** What about the EC99 [10] of the same compound?
**A.** Its EC99 is 0.15 to 0.25 µM.

**Q.** And the “antiviral effect in infected differentiated epithelia” value [10]?
**A.** The value was “sterilizing”.

**Q.** What about the robust efficacy threshold [10] of the same compound?
**A.** The robust efficacy threshold was “approximately 0.2 μM”.

**Q.** And the EC50 ([10]; Influenza A virus, in Homo sapiens, 72 h)?
**A.** The EC50 was 60 to 80 nM.

**Q.** What about the CC50 [11] of the same compound?
**A.** Its CC50 is 137000 nM.

**Q.** What about the “impact on mitochondrial versus nuclear protein expression” value [12] of the same compound?
**A.** Its value is “significantly greater”.

**Q.** And the “apically released virus load” value [1]?
**A.** Its value is “significantly reduced”.
